Values quoted from earlier work in patent publication US20150272124A1, “ANTIMICROBIAL COMPOSITIONS CONTAINING CATIONIC ACTIVE INGREDIENTS” (Ecolab USA Inc., priority 2014, published 2015).

Conditions: calcium-chelating agent complex, logarithmic form

Log Stability constant, Ca2+: 5.2
Compound: O=C(O)CC(NC(CC(=O)O)C(=O)O)C(=O)O (stereo not shown) [IDS, Iminodisuccinic Acid]
